According to US20260166045A1, “COMBINATION THERAPY COMPRISING GSPT1-DIRECTED MOLECULAR GLUE DEGRADERS AND PI3K/AKT/mTOR PATHWAY INHIBITORS” (Monte Rosa Therapeutics, Inc., priority 2022, published 2026):

Tests used:
Test in all cases: CellTiter-Glo 2.0 cell viability, 7x7 combination dose response matrix, synergy scoring
Format in all cases: cell-based
MCF7 cell line = details: MCF7, first compound 4.1-1000 nM
Text: (§1) A study was undertaken to determine whether the combination of a GSPT1-directed MGD and an inhibitor of the PI3K/AKT/mTOR pathway could be effective in killing cancer cells and whether certain combination could elicit a greater than additive effect on cell killing.
(§2) FIG. 1 is a flow diagram of the method used to assess cancer cell killing by a combination of a GSPT1-directed MGD and an inhibitor of the PI3K/AKT/mTOR pathway. Certain of the materials and equipment used in the studies are presented in Table 3 and the cell lines used are presented in Table 4.
(§3) All assays were run in triplicate. Each 384-well plate accommodated six 7×7 dose response matrices (FIG. 2). All compound handling was performed using an Echo 650 Series Acoustic Liquid Handler, which enables fully automated, precise, contact-free acoustic transfer in volumes as low as 2.5 nL.
(§4) The following protocol was used for cell plating: • 1. Warm media to room temperature or 37° C. • 2. Prepare complete phenol-free media by adding 10% FBS+1% Pen-Strep to RPMI 1640 Medium or DMEM. • 3. Aspirate media from T175 tissue culture flask and rinse with 10 ml PBS. • 4. Aspirate PBS and add 2 mL 0.25% trypsin. Incubate the flask at 37° C. for 5 min or until cells are detached. • 5. Add 10 mL complete media to the flask to neutralize the trypsin, then collect cells in a 50 mL conical tube. • 6. Centrifuge cells at 300 g for 5 min. Aspirate media and suspend cell pellet in fresh media. Use cell strainer to strain cells into a new 50 mL conical tube. • 7. […] Mix 100 uL cell suspension with 100 uL trypan blue (1:1) and pipette 20 μL of the mixture into each of 2 counting chambers on a slide. Insert slide. • b. Adjust focus and record the live cell count. At least 2 independent measurements should be taken. […] Cell viability should be greater than 90%. […] Dilute cell suspension to the desired concentration (20000 cells/mL) using complete phenol-free media. Prepare 10 mL cell suspension per plate+an extra 10 mL for priming the liquid handler. • 9. Dispense cells into 384-well plates using the liquid handler at 25 uL/well (500 cells/well). 3 plates should be prepared per compound plate to be treated. • 10. Cells should be dispensed into columns 1-23 only. Media only (no cells) should be dispensed into column 24. • 11. Allow plates to rest at RT for 30 minutes before transferring to the incubator. Incubate cells overnight at 37° C., 95% humidity, and 5% CO2.
(§5) Compound plates were prepared as follows using an Echo 650 Series Acoustic Liquid Handler. • 1. A compound plate containing 7-point dose responses of each compound to be treated is first prepared from stock compounds. • 2. The cell plates are treated with compounds according to the following maps, where the first compound is added across all six 7 by 7 dose response matrices, and its concentration varies by row (FIG. 2; top matrix), whereas the second compound varies for each dose response matrix, and its concentration varies by column (FIG. 2; bottom matrix). Each cell plate receives one Compound A and six different Compound Bs. • 3. To prepare a compound plate, 384-well PP plate with stock compounds (highest concentration) is prepared. Compounds are diluted 1:1000 in the cell plates, e.g. 10 mM on compound plate will be 10 uM on cell plate. A 384-well LDV plate with pre-determined volumes of DMSO is prepared. Echo is used to dilute stock compounds from PP plate into LDV plate to prepare 7-point dose responses.
(§6) Compounds were added to the cells and cell viability was measured after 72 hour incubation using CellTiter-Glo 2.0 Cell Viability Assay (Promega): • 1. For a compound addition, Echo is used to transfer 25 nL from the compound plate wells to the cell plates according to the plate maps shown in FIG. 2. Cell plates are treated in triplicate. Each well of the cell plate has 25 uL media (1:1000 dilution). Incubate cells post-treatment at 37° C., 95% humidity, and 5% CO2 for 72 hrs (step 106). • 2. […]

MDA-MB-157 cell line = details: first compound 4.1-1000 nM
Text: as §1, §2, §3, §4, §5, §6

CAL51 mutant cell line = details: first compound 4.1-1000 nM
Text: as §1, §2, §3, §4, §5, §6

NCI-H1155 cell line = details: first compound 1.05-500 nM
Text: as §1, §2, §3, §4, §5, §6

EBC-1 cell line = system: EBC-1 cell line
Text: as §1, §2, §3, §4, §5, §6

[1] = combined with Alpelisib 41-10000 nM
[2] = combined with Capivasertib 41-10000 nM
[3] = combined with Everolimus 41-10000 nM
[4] = combined with GNE-477 41-10000 nM
[5] = combined with KU-0063794 41-10000 nM
[6] = combined with M2698 41-10000 nM
[7] = combined with Everolimus 4.1-1000 nM
[8] = combined with GNE-477 21-10000 nM
[9] = combined with KU-0063794 21-10000 nM
[10] = combined with M2698 21-10000 nM
[11] = EBC-1, combined with GNE-477 21-10000 nM, first compound 1.05-500 nM
[12] = EBC-1, combined with KU-0063794 21-10000 nM, first compound 1.05-500 nM
[13] = EBC-1, combined with M2698 21-10000 nM, first compound 1.05-500 nM

Compound: O=C1CCC(N2Cc3ccc(COC(=O)Nc4cc(OC(F)(F)F)ccc4F)cc3C2=O)C(=O)N1 (stereo not shown) [Compound 1-1, [2-(2,6-dioxopiperidin-3-yl)-3-oxo-2,3-dihydro-1H-isoindol-5-yl]methyl N-[2-fluoro-5-(trifluoromethoxy)phenyl]carbamate]
- Mean Bliss synergy score (MCF7 cell line; [1]): 1.44
- Mean Loewe synergy score (MCF7 cell line; [1]): 6.88
- Mean Bliss synergy score (MCF7 cell line; [2]): 1.60
- Mean Loewe synergy score (MCF7 cell line; [2]): 11.02
- Mean Bliss synergy score (MCF7 cell line; [3]): 6.39
- Mean Loewe synergy score (MCF7 cell line; [3]): 17.49
- Mean Bliss synergy score (MCF7 cell line; [4]): 8.82
- Mean Loewe synergy score (MCF7 cell line; [4]): 12.53
- Mean Bliss synergy score (MCF7 cell line; [5]): 9.78
- Mean Loewe synergy score (MCF7 cell line; [5]): 14.51
- Mean Bliss synergy score (MCF7 cell line; [6]): 8.47
- Mean Loewe synergy score (MCF7 cell line; [6]): 15.52
- Mean Bliss synergy score (MDA-MB-157 cell line; [1]): −2.43
- Mean Loewe synergy score (MDA-MB-157 cell line; [1]): 2.54
- Mean Bliss synergy score (MDA-MB-157 cell line; [2]): 3.83
- Mean Loewe synergy score (MDA-MB-157 cell line; [2]): 7.36
- Mean Bliss synergy score (MDA-MB-157 cell line; [3]): 1.61
- Mean Loewe synergy score (MDA-MB-157 cell line; [3]): 8.84
- Mean Bliss synergy score (MDA-MB-157 cell line; [4]): 1.72
- Mean Loewe synergy score (MDA-MB-157 cell line; [4]): 6.42
- Mean Bliss synergy score (MDA-MB-157 cell line; [5]): 2.25
- Mean Loewe synergy score (MDA-MB-157 cell line; [5]): 6.64
- Mean Bliss synergy score (MDA-MB-157 cell line; [6]): 4.89
- Mean Loewe synergy score (MDA-MB-157 cell line; [6]): 7.65
- Mean Bliss synergy score (CAL51 mutant cell line; [1]): 4.76
- Mean Loewe synergy score (CAL51 mutant cell line; [1]): 0.35
- Mean Bliss synergy score (CAL51 mutant cell line; [2]): −0.44
- Mean Loewe synergy score (CAL51 mutant cell line; [2]): −3.66
- Mean Bliss synergy score (CAL51 mutant cell line; [7]): −3.14
- Mean Loewe synergy score (CAL51 mutant cell line; [7]): 4.91
- Mean Bliss synergy score (CAL51 mutant cell line; [4]): 2.54
- Mean Loewe synergy score (CAL51 mutant cell line; [4]): −2.04
- Mean Bliss synergy score (CAL51 mutant cell line; [5]): 2.83
- Mean Loewe synergy score (CAL51 mutant cell line; [5]): −1.46
- Mean Bliss synergy score (CAL51 mutant cell line; [6]): −2.37
- Mean Loewe synergy score (CAL51 mutant cell line; [6]): −2.73
- Mean Bliss synergy score (NCI-H1155 cell line; [8]): 1.97
- Mean Loewe synergy score (NCI-H1155 cell line; [8]): 4.77
- Mean Bliss synergy score (NCI-H1155 cell line; [9]): 0.38
- Mean Loewe synergy score (NCI-H1155 cell line; [9]): 3.70
- Mean Bliss synergy score (NCI-H1155 cell line; [10]): 1.48
- Mean Loewe synergy score (NCI-H1155 cell line; [10]): 5.14
- Mean Bliss synergy score (EBC-1 cell line; [11]): 12.03
- Mean Loewe synergy score (EBC-1 cell line; [11]): 1.96
- Mean Bliss synergy score (EBC-1 cell line; [12]): 13.27
- Mean Loewe synergy score (EBC-1 cell line; [12]): −6.72
- Mean Bliss synergy score (EBC-1 cell line; [13]): 10.48
- Mean Loewe synergy score (EBC-1 cell line; [13]): 8.11
- Mean Bliss synergy score (EBC-1 cell line; combined with GNE-477 (21 nM to 10 uM), EBC-1 cell line, mean across dose response matrix, 72 hrs): 12.03
